Data: the supplement of paper PMC10307832

Columns and labels:
Assay in all cases: relative viability (nuclei count vs DMSO), 5 days (fraction); higher = more cells survive
A-427 = test system: A-427
Method in brief: (§1)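 For relative viability, nuclei counts in treated wells were divided by those in vehicle wells. Lung cancer cell lines had been pin-tool dosed in 1536-well plates the day after seeding and cultured for 5 days, then fixed and stained in one step (final 0.05% Triton X-100, 1% formaldehyde, 1 ug/ml Hoechst) and imaged at 4×. Doses were one drug alone or a fixed anchor-drug dose plus five library-drug doses (not always all listed) in √10 steps, and values are duplicate-plate medians.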

COR-L 105 = test system: COR-L 105
Method in brief: as §1

EKVX = test system: EKVX
Method in brief: as §1

EMC-BAC-2 = test system: EMC-BAC-2
Method in brief: as §1

H3255 = test system: H3255
Method in brief: as §1

HCC-366 = test system: HCC-366
Method in brief: as §1

LK-2 = test system: LK-2
Method in brief: as §1

LOU-NH91 = test system: LOU-NH91
Method in brief: as §1

NCI-H1563 = test system: NCI-H1563
Method in brief: as §1

NCI-H1666 = test system: NCI-H1666
Method in brief: as §1

NCI-H1734 = test system: NCI-H1734
Method in brief: as §1

NCI-H1755 = test system: NCI-H1755
Method in brief: as §1

NCI-H1792 = test system: NCI-H1792
Method in brief: as §1

NCI-H1975 = test system: NCI-H1975
Method in brief: as §1

NCI-H2170 = test system: NCI-H2170
Method in brief: as §1

NCI-H23 = test system: NCI-H23
Method in brief: as §1

NCI-H520 = test system: NCI-H520
Method in brief: as §1

NCI-H596 = test system: NCI-H596
Method in brief: as §1

PC-3 [JPC-3] = test system: PC-3 [JPC-3]
Method in brief: as §1

SK-MES-1 = test system: SK-MES-1
Method in brief: as §1

NC(=O)Nc1cc(-c2cccc(F)c2)sc1C(=O)N[C@H]1CCCNC1 [AZD7762] + CS(=O)(=O)CCNCc1ccc(-c2ccc3ncnc(Nc4ccc(OCc5cccc(F)c5)c(Cl)c4)c3c2)o1 [Lapatinib] (partner 2 µM)
relative viability (A-427; first compound 0.01 µM): 1.09 | relative viability (A-427; first compound 0.03162 µM): 1.05 | relative viability (A-427; first compound 0.1 µM): 1.07 | relative viability (A-427; first compound 0.3162 µM): 0.938 | relative viability (A-427; first compound 1 µM): 0.716 | relative viability (COR-L 105; first compound 0.01 µM): 0.413 | relative viability (COR-L 105; first compound 0.03162 µM): 0.353 | relative viability (COR-L 105; first compound 0.1 µM): 0.254 | relative viability (COR-L 105; first compound 0.3162 µM): 0.332 | relative viability (COR-L 105; first compound 1 µM): 0.282 | relative viability (EKVX; first compound 0.01 µM): 0.204 | relative viability (EKVX; first compound 0.03162 µM): 0.232 | relative viability (EKVX; first compound 0.1 µM): 0.206 | relative viability (EKVX; first compound 0.3162 µM): 0.253 | relative viability (EKVX; first compound 1 µM): 0.166 | relative viability (EMC-BAC-2; first compound 0.01 µM): 0.908 | relative viability (EMC-BAC-2; first compound 0.03162 µM): 0.929 | relative viability (EMC-BAC-2; first compound 0.1 µM): 0.919 | relative viability (EMC-BAC-2; first compound 0.3162 µM): 0.91 | relative viability (EMC-BAC-2; first compound 1 µM): 0.894 | relative viability (H3255; first compound 0.01 µM): 0.316 | relative viability (H3255; first compound 0.03162 µM): 0.256 | relative viability (H3255; first compound 0.1 µM): 0.244 | relative viability (H3255; first compound 0.3162 µM): 0.264 | relative viability (H3255; first compound 1 µM): 0.244 | relative viability (HCC-366; first compound 0.01 µM): 0.991 | relative viability (HCC-366; first compound 0.03162 µM): 1.12 | relative viability (HCC-366; first compound 0.1 µM): 0.879 | relative viability (HCC-366; first compound 0.3162 µM): 0.375 | relative viability (HCC-366; first compound 1 µM): 0.0771 | relative viability (LK-2; first compound 0.01 µM): 1.02 | relative viability (LK-2; first compound 0.03162 µM): 1.03 | relative viability (LK-2; first compound 0.1 µM): 0.759 | relative viability (LK-2; first compound 0.3162 µM): 0.828 | relative viability (LK-2; first compound 1 µM): 0.573 | relative viability (LOU-NH91; first compound 0.01 µM): 0.792 | relative viability (LOU-NH91; first compound 0.03162 µM): 0.791 | relative viability (LOU-NH91; first compound 0.1 µM): 0.753 | relative viability (LOU-NH91; first compound 0.3162 µM): 0.572 | relative viability (LOU-NH91; first compound 1 µM): 0.639 | relative viability (NCI-H1563; first compound 0.01 µM): 0.868 | relative viability (NCI-H1563; first compound 0.03162 µM): 1.04 | relative viability (NCI-H1563; first compound 0.1 µM): 1.04 | relative viability (NCI-H1563; first compound 0.3162 µM): 0.982 | relative viability (NCI-H1563; first compound 1 µM): 0.904 | relative viability (NCI-H1666; first compound 0.01 µM): 0.671 | relative viability (NCI-H1666; first compound 0.03162 µM): 0.821 | relative viability (NCI-H1666; first compound 0.1 µM): 0.73 | relative viability (NCI-H1666; first compound 0.3162 µM): 0.629 | relative viability (NCI-H1666; first compound 1 µM): 0.708 | relative viability (NCI-H1734; first compound 0.01 µM): 0.974 | relative viability (NCI-H1734; first compound 0.03162 µM): 1.16 | relative viability (NCI-H1734; first compound 0.1 µM): 1.13 | relative viability (NCI-H1734; first compound 0.3162 µM): 0.946 | relative viability (NCI-H1734; first compound 1 µM): 0.67 | relative viability (NCI-H1755; first compound 0.01 µM): 1.07 | relative viability (NCI-H1755; first compound 0.03162 µM): 1.1 | relative viability (NCI-H1755; first compound 0.1 µM): 1.17 | relative viability (NCI-H1755; first compound 0.3162 µM): 0.924 | relative viability (NCI-H1755; first compound 1 µM): 0.364 | relative viability (NCI-H1792; first compound 0.01 µM): 0.965 | relative viability (NCI-H1792; first compound 0.03162 µM): 0.911 | relative viability (NCI-H1792; first compound 0.1 µM): 0.925 | relative viability (NCI-H1792; first compound 0.3162 µM): 0.945 | relative viability (NCI-H1792; first compound 1 µM): 1.05 | relative viability (NCI-H1975; first compound 0.01 µM): 0.89 | relative viability (NCI-H1975; first compound 0.03162 µM): 0.831 | relative viability (NCI-H1975; first compound 0.1 µM): 0.776 | relative viability (NCI-H1975; first compound 0.3162 µM): 0.639 | relative viability (NCI-H1975; first compound 1 µM): 0.398 | relative viability (NCI-H2170; first compound 0.01 µM): 0.289 | relative viability (NCI-H2170; first compound 0.03162 µM): 0.256 | relative viability (NCI-H2170; first compound 0.1 µM): 0.26 | relative viability (NCI-H2170; first compound 0.3162 µM): 0.263 | relative viability (NCI-H2170; first compound 1 µM): 0.257 | relative viability (NCI-H23; first compound 0.01 µM): 1.08 | relative viability (NCI-H23; first compound 0.03162 µM): 1.04 | relative viability (NCI-H23; first compound 0.1 µM): 1.18 | relative viability (NCI-H23; first compound 0.3162 µM): 0.508 | relative viability (NCI-H23; first compound 1 µM): 0.3 | relative viability (NCI-H520; first compound 0.01 µM): 0.825 | relative viability (NCI-H520; first compound 0.03162 µM): 0.864 | relative viability (NCI-H520; first compound 0.1 µM): 0.735 | relative viability (NCI-H520; first compound 0.3162 µM): 0.304 | relative viability (NCI-H520; first compound 1 µM): 0.254 | relative viability (NCI-H596; first compound 0.01 µM): 1.11 | relative viability (NCI-H596; first compound 0.03162 µM): 1.01 | relative viability (NCI-H596; first compound 0.1 µM): 1.13 | relative viability (NCI-H596; first compound 0.3162 µM): 1.11 | relative viability (NCI-H596; first compound 1 µM): 0.891 | relative viability (PC-3 [JPC-3]; first compound 0.01 µM): 0.473 | relative viability (PC-3 [JPC-3]; first compound 0.03162 µM): 0.447 | relative viability (PC-3 [JPC-3]; first compound 0.1 µM): 0.372 | relative viability (PC-3 [JPC-3]; first compound 0.3162 µM): 0.46 | relative viability (PC-3 [JPC-3]; first compound 1 µM): 0.432 | relative viability (SK-MES-1; first compound 0.01 µM): 0.434 | relative viability (SK-MES-1; first compound 0.03162 µM): 0.396 | relative viability (SK-MES-1; first compound 0.1 µM): 0.457 | relative viability (SK-MES-1; first compound 0.3162 µM): 0.468 | relative viability (SK-MES-1; first compound 1 µM): 0.469
